Results as given in PMC8301114, “LC-ESI-LTQ-Orbitrap-MS for Profiling the Distribution of Oleacein and Its Metabolites in Rat Tissues” (Antioxidants, 2021).
Several values for one entry are separate records, joined by “and”; a condition that tells them apart may be missing. Equal entries are not always repeated. Marks after values point to notes of the source that are not given here.

What was measured:
[1] = Tissue distribution of OLEA and its metabolites after intragastric administration of ROO containing OLEA (LC-ESI-LTQ-Orbitrap-MS); assay type: in vivo, male Sprague–Dawley rats; settings: for Tissue concentration in heart / Concentration in liver / Concentration in small intestine / Concentration in stomach: mean ± SD; for Detection in heart, spleen, thyroids, lungs, brain, kidney, and skin: 1, 2 and 4.5 h after intragastric OLEA in ROO
Procedure: (§1) In this study, male Sprague–Dawley rats (body weight 227 ± 11 g) were obtained from Envigo RMS Spain SL (Sant Feliu de Codines, Barcelona, Spain). The animals were acclimated for at least 1 week before the initiation of dosing with free access to food and water. They were kept at 22 ± 2 °C in an air-conditioned room on a 12-h light–12-h dark cycle. Before the experiments, the animals were fasted overnight with water available ad libitum. The experiments were performed in compliance with the Animal Experimentation Ethics Committee of the University of Barcelona, Spain and were approved by the Generalitat de Catalunya (trial no. CEEA 124/16 and no. 6435, respectively).
(§2) Before the experiment, the ROO (used as a vehicle to dissolve OLEA for intragastric administration) was analyzed by LC-ESI-LTQ-Orbitrap-MS to make sure it was free of phenolic compounds. The liquid–liquid extraction of phenolic compounds in the ROO was performed following previously described procedures. The chromatographic and mass spectrometer conditions were the same as used for the identification of metabolites (Section 2.6). Once the absence of phenolic compounds was confirmed, the OLEA was added to obtain a final concentration of 0.3 mg/mL. This concentration was chosen based on its concentration in commercial EVOO (around 300 mg/kg), and the daily ingestion recommended by the European Food Safety Authority of at least 5 mg of hydroxytyrosol and its derivatives per 20 g of olive oil.
(§3) The rats were divided into three different groups according to the time of euthanasia: 1 h (n = 4), 2 h (n = 5), and 4.5 h (n = 4). At 0 h, ROO loaded with OLEA standard was supplied to the rats (2.5 mL/300 g body weight) by intragastric administration. Additionally, a control group of rats was maintained under fasting conditions without olive oil ingestion and then similarly euthanized. The gavage volume was established following a good practice guide for substance administration and was lower than the maximum volume of lipid vehicles per kg of rat body weight that prevents elevated plasma corticosterone levels.
(§4) The rats were anesthetized with isoflurane (IsoFlo, veterinaria Esteve, Barcelona, Spain) and euthanized by exsanguinations at the aforementioned time points after the ROO ingestion. Blood samples were collected in EDTA tubes, centrifuged to obtain the plasma (3000× g, 10 min at 4 °C), and stored at −80 °C until analysis. The gastrointestinal tract (including stomach and small intestine), heart, spleen, thyroids, lungs, brain, kidney, and skin were removed from rats at the designated time points. All tissues were washed with saline solution (NaCl 0.9%) and dried with filter paper. In the case of the intestine, the portion removed was 15 cm from 2 cm posterior to the pyloric sphincter, and the intestine was also washed internally by perfusing the isotonic saline solution several times. Rat tissues were accurately weighed and stored at −80 °C until analysis.
(§5) For extraction, all samples were slowly thawed in ice. To avoid compound oxidation, the samples were handled in a room with filtered light and kept on ice throughout. The clean-up of the biological matrix (protein precipitation) was performed using a previously developed method.
A small tissue disruptor (T 10 basic ULTRA-TURRAX®, IKA laboratory technology, Staufen, Germany) was used to homogenize the thawed tissues in a 1:1 ratio (w/v) with water:ACN (1:1 (v/v) with 0.1% ascorbic acid). The samples were then sonicated for 5 min in an ice bath, shaken for 1 min (Vortex-Genie 2) and centrifuged for 10 min (11,000× g, 4 °C). To precipitate the proteins, a volume of 100 µL of the upper layer was blended with cold ACN acidified with formic acid (2%) in a 1:3 (v/v) ratio. After that, the samples were homogenized for 1 min and kept at −20 °C in a freezer for 20 min. Finally, the samples were centrifuged for 10 min (11,000× g, 4 °C) and 100 µL of supernatant was transferred to vials for analysis. […]

[2] = Plasma concentration of OLEA and its metabolites after intragastric administration of ROO containing OLEA (LC-ESI-LTQ-Orbitrap-MS); assay type: in vivo, male Sprague–Dawley rats
Procedure: as §1, §2, §3, §4, §5
Plasma samples were centrifuged for 10 min (11,000× g, 4 °C). Briefly, 100 µL of each sample was deproteinized with ice-cold ACN acidified with formic acid (2%) in a 1:5 (v/v) ratio. The samples were then homogenized for 1 min and kept at −20 °C in a freezer for 20 min. After that, samples were centrifuged (11,000× g, 4 °C, 10 min) and finally, 100 µL of each organic phase was transferred to vials for analysis.
The metabolic profile was determined by analyzing the samples with LC-ESI-LTQ-Orbitrap-MS. […]

[3] = parameters: method as in PMID 21411025; settings: in vivo study with rats; cited from earlier work
[4] = parameters: method as in PMID 21411025; settings: pH 2.0, after 4 h, partial hydrolysis releasing OH-TY; cited from earlier work
[5] = parameters: method as in PMID 30469520, PMID 10745093; settings: moderate lipophilicity; cited from earlier work
[6] = parameters: method as in doi:10.1016/j.jff.2016.01.030; settings: stomach at 1 h, another study; cited from earlier work
[7] = 1 h after intragastric OLEA 0.3 mg/mL in ROO
[8] = small intestine, 1 h after intragastric OLEA 0.3 mg/mL in ROO
[9] = small intestine, 2 h after intragastric OLEA 0.3 mg/mL in ROO
[10] = small intestine, 4.5 h after intragastric OLEA 0.3 mg/mL in ROO
[11] = stomach, 1 h after intragastric OLEA 0.3 mg/mL in ROO
[12] = stomach, 2 h after intragastric OLEA 0.3 mg/mL in ROO
[13] = stomach, 4.5 h after intragastric OLEA 0.3 mg/mL in ROO
[14] = 1 h after intragastric OLEA 0.3 mg/mL in ROO, mean ± SD
[15] = 2 h after intragastric OLEA 0.3 mg/mL in ROO, mean ± SD
[16] = 4.5 h after intragastric OLEA 0.3 mg/mL in ROO, mean ± SD
[17] = 2 h after intragastric OLEA 0.3 mg/mL in ROO
[18] = 4.5 h after intragastric OLEA 0.3 mg/mL in ROO

Row | Concentration in plasma [2, 15] | Detection in heart, spleen, thyroids, lungs, brain, kidney, and skin [1] | Molecule | Concentration in liver [1, 7] | Concentration in small intestine [1, 8] | Concentration in small intestine [1, 9] | Concentration in small intestine [1, 10] | Concentration in stomach [1, 11] | Concentration in stomach [1, 12] | Concentration in stomach [1, 13] | Concentration in plasma [2, 14] | Concentration in plasma [2, 16] | Concentration in liver [1, 17] | Concentration in liver [1, 18] | logP [5] | further results
1 | 0.65 ± 0.07 ^b nmol OLEA equivalents/mL |  | CC=C(C=O)C(CC=O)CC(=O)OCCc1ccc(O)c(O)c1 (stereo in doubt) [OLEA, Oleacein] | 0.28 ± 0.02 nmol OLEA equivalents/g tissue | 2.24 ± 0.14 ^a nmol OLEA equivalents/g tissue | 1.69 ± 0.25 ^b nmol OLEA equivalents/g tissue | 0.51 ± 0.10 ^c nmol OLEA equivalents/g tissue | 8.73 ± 0.29 ^a nmol OLEA equivalents/g tissue | 7.39 ± 0.25 ^b nmol OLEA equivalents/g tissue | 5.77 ± 0.54 ^c nmol OLEA equivalents/g tissue | 1.37 ± 0.20 nmol OLEA equivalents/mL and 1.37 ± 0.20 ^a nmol OLEA equivalents/mL | 0.67 ± 0.10 nmol OLEA equivalents/mL and 0.67 ± 0.10 ^b nmol OLEA equivalents/mL |  |  |  | Tissue concentration in heart ([1]; heart, 1 h after acute intake of OLEA (0.3 mg/mL) in ROO): 0.44 ± 0.07 nmol OLEA equivalents/g tissue and 0.44 ± 0.07 ^a nmol OLEA equivalents/g tissue; Tissue concentration in heart ([1]; heart, 2 h after acute intake of OLEA (0.3 mg/mL) in ROO): 0.45 ± 0.04 nmol OLEA equivalents/g tissue and 0.45 ± 0.04 ^a nmol OLEA equivalents/g tissue; Tissue concentration in heart ([1]; heart, 4.5 h after acute intake of OLEA (0.3 mg/mL) in ROO): 0.44 ± 0.06 nmol OLEA equivalents/g tissue and 0.44 ± 0.06 ^a nmol OLEA equivalents/g tissue; Concentrations detected in the heart ([1]; heart, all time points): ≤ 0.5 nmol OLEA equivalents/g tissue; Decrease of concentration in the small intestine relative to Cmax at 1 h ([1]; small intestine, at 2 h): 25%; Decrease of concentration in the small intestine relative to Cmax at 1 h ([1]; small intestine, at 4.5 h): 77%; Time of Cmax in small intestine ([1]; small intestine, sampling at 1, 2, 4.5 h): 1 h; Decrease of concentration in the stomach relative to Cmax at 1 h ([1]; stomach, at 2 h): 16%; Decrease of concentration in the stomach relative to Cmax at 1 h ([1]; stomach, at 4.5 h): 34%; Time of Cmax in stomach ([1]; stomach, sampling at 1, 2, 4.5 h): 1 h; Time of Cmax in plasma ([2]; sampling at 1, 2, 4.5 h): 1 h; Degradation in the gastric region [3]: complete degradation; OLEA remaining after incubation at pH 2.0 [4]: about 67%
2 |  | not detected | OCCc1ccc(O)c(O)c1 [OH-TY, hydroxytyrosol] | 3.34 ± 0.08 ^b nmol OLEA equivalents/g tissue | 4.71 ± 0.32 ^a nmol OLEA equivalents/g tissue | 3.79 ± 0.29 ^b nmol OLEA equivalents/g tissue | 2.70 ± 0.21 ^c nmol OLEA equivalents/g tissue | 13.37 ± 1.27 ^a nmol OLEA equivalents/g tissue | 7.81 ± 0.69 ^b nmol OLEA equivalents/g tissue | 5.23 ± 0.37 ^c nmol OLEA equivalents/g tissue |  |  | 3.83 ± 0.21 ^a nmol OLEA equivalents/g tissue | 2.51 ± 0.07 ^c nmol OLEA equivalents/g tissue | ~ 0.9 | Share of the total metabolites identified in plasma ([2]; 1 h): 20%; Share of the total metabolites identified in plasma ([2]; 2 h): 22%; Share of the total metabolites identified in plasma ([2]; 4.5 h): 17%; concentration at 1 h ([2]; male, Sprague-Dawley, rat, oral, 2.5 mg/kg, 1 h after intragastric OLEA 0.3 mg/mL in ROO, mean ± SD): 2110 ± 100 nM; concentration at 2 h ([2]; male, Sprague-Dawley, rat, oral, 2.5 mg/kg, 2 h after intragastric OLEA 0.3 mg/mL in ROO, mean ± SD): 3020 ± 160 nM; concentration at 4.5 h ([2]; male, Sprague-Dawley, rat, oral, 2.5 mg/kg, 4.5 h after intragastric OLEA 0.3 mg/mL in ROO, mean ± SD): 1620 ± 140 nM; OH-TY concentration in stomach [6]: 8.75 ± 1.95 nmols/g digesta
3 | 0.76 ± 0.04 ^a nmol OLEA equivalents/mL | not detected | elenolic acid [EA] | 1.07 ± 0.06 ^b nmol OLEA equivalents/g tissue | 1.81 ± 0.05 ^a nmol OLEA equivalents/g tissue | 0.67 ± 0.08 ^b nmol OLEA equivalents/g tissue | 0.16 ± 0.02 ^c nmol OLEA equivalents/g tissue | 7.53 ± 0.56 ^a nmol OLEA equivalents/g tissue | 4.07 ± 0.36 ^b nmol OLEA equivalents/g tissue | 1.81 ± 0.13 ^c nmol OLEA equivalents/g tissue | 0.43 ± 0.03 ^b nmol OLEA equivalents/mL | 0.16 ± 0.02 ^c nmol OLEA equivalents/mL | 1.34 ± 0.08 ^a nmol OLEA equivalents/g tissue | 0.76 ± 0.02 ^c nmol OLEA equivalents/g tissue | ~ 0.9 | 
